Measurements reported in patent US10370354B2, “Metalloenzyme inhibitor compounds” (NQP 1598, LTD., priority 2011, dated 2019).
Values after ≈ are worked out from the molar mass of the structure shown.

How the values were obtained:
C. albicans = test: Minimum Inhibitory Concentration (MIC), C. albicans, CLSI M27-A2; assay type: cell-based; conditions: Candida albicans MIC50; about 50% growth reduction; approximately 48 h at 35±1° C.
Method: Compounds were assessed for their ability to inhibit the growth of common strains of fungus, C. albicans using a standardized procedure (CLSI M27-A2).
Stock solutions of the test compounds and standards were prepared in DMSO at 1600 μg/mL (C. albicans). Eleven, serial, one-half dilutions of compounds were prepared in 96-well plates in RPMI+MOPS. The assay concentration ranges were 1-0.001 μg/mL (C. albicans). Cell suspensions of C. albicans were prepared and added to each well at concentrations of approximately 3.7×10^3 colony-forming-units per milliliter (cfu/mL). All testing was in duplicate. The inoculated plates were incubated for approximately 48 h at 35±1° C. At the completion of incubation the wells of each plate were evaluated visually for the presence of fungal growth.
For voriconazole the M1C was the concentration which reduced C. albicans growth by 50% (per CLST, M27-A2). For QC purposes C. krusei isolate ATCC 6258 (4.0×10^3 cfu/mL) was included in the VOR assay.

Septoria tritici = test: standard Septoria tritici MIC assay (ATCC 26517, CLSI protocol); assay type: cell-based; conditions: Zymoseptoria tritici, ATCC26517, range stated for the three compounds together
Septoria = test: protection from fungal growth in planta, Septoria; assay type: in vivo; conditions: applied at 50 ppm; Septoria pathogen
Puccinia = test: protection from fungal growth in planta, Puccinia; assay type: in vivo; conditions: applied at 50 ppm; Puccinia pathogen
A. fumigatus [1] = test: A. fumigatus MIC, CLSI M38-A2; conditions: Aspergillus fumigatus, read-out: Aspergillus MIC
Method: A. fumigatus MICs were determined at both 50% and 100% growth inhibition following CLSI guidelines at a concentration range of 64-0.062 μg/mL (CLSI M38-A2).

A. fumigatus [2] = test: standard 4-day mouse model of A. fumigatus, kidney fungal burden; assay type: in vivo; conditions: oral administration at 20 mg/kg each of 4 days
Method: For example, oral administration of Compound (−)-9 at 20 mg/kg each of 4 days reduced mouse kidney fungal burden 84% compared to control.

| Structure (SMILES) | MIC (C. albicans) | MIC (Septoria tritici) | MIC (A. fumigatus [1]) | also measured |
| --- | --- | --- | --- | --- |
| OC(Cn1cnnn1)(c1ccc(F)cc1F)C(F)(F)c1ccc(C#Cc2ccc(Cl)cc2)cn1 (racemic) [Example 2, 1-(5-((4-Chlorophenyl)ethynyl)pyridin-2-yl)-2-(2,4-difluorophenyl)-1,1-difluoro-3-(1H-tetrazol-1-yl)propan-2-ol] | 0.004 µg/mL (≈ 0.0082 µM) | 0.25 to 1 µg/mL (≈ 0.512 to 2.05 µM) | 8 µg/mL (≈ 16.4 µM) | protection from fungal growth in planta (Septoria): provide protection from fungal growth; protection from fungal growth in planta (Puccinia): provide protection from fungal growth |
| OC(Cn1cnnn1)(c1ccc(F)cc1F)C(F)(F)c1ccc(C#Cc2ccc(F)cc2)cn1 (racemic) [Example 3, 2-(2,4-Difluorophenyl)-1,1-difluoro-1-(5-((4-fluorophenyl)ethynyl)pyridin-2-yl)-3-(1H-tetrazol-1-yl)propan-2-ol] | – | 0.25 to 1 µg/mL (≈ 0.53 to 2.12 µM) | – | – |
| OC(Cn1cnnn1)(c1ccc(F)cc1F)C(F)(F)c1ccc(C#Cc2ccc(C(F)(F)F)cc2)cn1 (racemic) [Example 5, 2-(2,4-Difluorophenyl)-1,1-difluoro-3-(1H-tetrazol-1-yl)-1-(5-((4-(trifluoromethyl)phenyl)ethynyl)pyridin-2-yl)propan-2-ol] | 0.016 µg/mL (≈ 0.0307 µM) | – | 8 µg/mL (≈ 15.3 µM) | – |
| OC(c1ccc(C#Cc2ccc(C(F)(F)C(O)(Cn3cnnn3)c3ccc(F)cc3F)nc2)cc1)C(F)(F)F (racemic) [Example 9, 2-(2,4-difluorophenyl)-1,1-difluoro-3-(1H-tetrazol-1-yl)-1-(5-((4-(2,2,2-trifluoro-1-hydroxyethyl)phenyl)ethynyl)pyridin-2-yl)propan-2-ol] | ≤ 0.001 µg/mL | – | 0.5 µg/mL (≈ 0.907 µM) | – |
| OC(Cn1cnnn1)(c1ccc(F)cc1F)C(F)(F)c1ccc(C#Cc2cccc(Cl)c2)cn1 (racemic) [Example 21, 1-(5-((3-chlorophenyl)ethynyl)pyridin-2-yl)-2-(2,4-difluorophenyl)-1,1-difluoro-3-(1H-tetrazol-1-yl)propan-2-ol] | – | 0.25 to 1 µg/mL (≈ 0.512 to 2.05 µM) | – | – |
| OC(Cn1cnnn1)(c1ccc(F)cc1F)C(F)(F)c1ccc(C#Cc2ccc(OCc3ccc(OC(F)(F)F)cc3)cc2)cn1 (racemic) [Example 101, 2-(2,4-difluorophenyl)-1,1-difluoro-3-(1H-tetrazol-1-yl)-1-(5-((4-(4-(trifluoromethoxy)benzyloxy)phenyl)ethynyl)pyridin-2-yl)propan-2-ol] | 0.25 µg/mL (≈ 0.388 µM) | – | 2 µg/mL (≈ 3.11 µM) | – |
| OC(Cn1cnnn1)(c1ccc(F)cc1F)C(F)(F)c1ccc(C#Cc2ccc(OCc3ccc(Cl)cc3F)cc2)cn1 (racemic) [Example 108, 1-(5-((4-(4-chloro-2-fluorobenzyloxy)phenyl)ethynyl)pyridin-2-yl)-2-(2,4-difluorophenyl)-1,1-difluoro-3-(1H-tetrazol-1-yl)propan-2-ol] | 0.062 µg/mL (≈ 0.101 µM) | – | 4 µg/mL (≈ 6.54 µM) | – |
| OC(c1ccc(C#Cc2ccc(C(F)(F)C(O)(Cn3cnnn3)c3ccc(F)cc3F)nc2)cc1)C(F)(F)F (stereo not drawn) [Compound (−)-9, 2-(2,4-difluorophenyl)-1,1-difluoro-3-(1H-tetrazol-1-yl)-1-(5-((4-(2,2,2-trifluoro-1-hydroxyethyl)phenyl)ethynyl)pyridin-2-yl)propan-2-ol] | – | – | – | reduced mouse kidney fungal burden compared to control (A. fumigatus [2]): 84% |
| C[C@@H](c1ncncc1F)[C@](O)(Cn1cncn1)c1ccc(F)cc1F [Voriconazole, reference compound] | 0.016 µg/mL (≈ 0.0458 µM) | – | 0.25 µg/mL (≈ 0.716 µM) | – |
